Measured values: patent US9629869B2, “Application of fructus schisandrae total polysaccharides in preparatoin of medicine or nutraceuticals used for treating coughing” (priority 2014, dated 2017)

Key:
Assay type in all cases: in vivo, guinea pig
[1] = test system: guinea pigs with increased cough sensitivity induced by cigarette smoke; assay: Citric acid cough stimulation of guinea pigs with increased cough sensitivity induced by cigarette smoke (Embodiment I); settings: 30 mg/kg oral once, one hour before citric acid check, x ± s, n = 7-10
Method: Experimental animals used in the specific embodiments are ordinary male pure white Hartly guinea pigs each with a weight of 300±50 g which are supplied by the Laboratory Animal Center of Guangdong Province (SCXK (Guang) 2008-0002). The guinea pigs are raised in a relatively clean and quiet environment with constant temperature (23±3° C.) and constant humidity (55±15%); the diurnal cycle is 12:12 h/day; and the guinea pigs are raised in different cages, and every five guinea pigs are raised in one cage and can obtain food and water freely. […]
Except for the normal group, animals in other groups are respectively stimulated by adopting the smoking method described in the above 1.1. […] The guinea pigs are placed in a plethysmogrophy box at the 15th day; two minutes later, 0.4 mol/L citric acid aqueous solution is atomized to perform the cough stimulation, and the atomizing is ended in 10 minutes; the guinea pigs are continuously observed for 10 minutes; and the coughing times and coughing latent period of the guinea pigs in 20 minutes after the atomizing is started are recorded.

[2] = test system: acute cough guinea pigs induced by citric acid smoke; assay: Acute cough of guinea pigs induced by citric acid smoke, five days of dosing (Embodiment II); settings: 30 mg/kg oral once, one hour before stimulation at fifth day, x ± s, n = 8
Method: After the guinea pigs are quietly raised for one week, the cough sensitivity screening is carried out: the guinea pigs is stimulated for one minute by atomizing 0.8 mol/L citric acid and continuously observed for five minutes; the coughing times of the guinea pigs in 6 minutes after the atomizing is started is recorded; and the guinea pigs with the coughing times greater than 10 times and less than 50 times are the qualified guinea pigs. […]
Except for the normal group and the codeine group, the guinea pigs in the rest groups are orally given with drugs or solvent consecutively for five days and once a day; and the citric acid cough stimulation is carried out in one hour after the guinea pigs are given with the drug or solvent at the fifth day: the guinea pigs are stimulated for one minute by atomizing 0.8 mol/L citric acid and are continuously observed for 5 minutes after the atomizing is stopped, and the coughing times of the guinea pigs in 6 minutes after the atomizing is started is recorded. […]

[3] = test system: citric acid smoke stimulation-caused guinea pigs; assay: Coughing times of citric acid smoke stimulated guinea pigs at different time points after one dose (Embodiment III); settings: 5 hours after one oral dose of 30 mg/kg; FIG. 2
Method: After the guinea pigs are quietly raised for one week, the cough sensitivity is screened: the guinea pigs are stimulated for one minute by atomizing 0.8 mol/L citric acid and continuously observed for five minutes after the atomizing is stopped; the coughing times of the guinea pigs in 6 minutes after the atomization is started is recorded; and the guinea pigs with the coughing times greater than 10 times and less than 50 times are the qualified guinea pigs.
The qualified guinea pigs are selected to be normally raised for three days and randomly divided into four groups with 30 guinea pigs in each group. The guinea pigs in the first group are divided into three subgroups with 10 guinea pigs in each subgroup, and all guinea pigs are directly under the citric acid cough stimulation: the guinea pigs are stimulated for one minute by atomizing 0.8 mol/L citric acid and are continuously observed for 5 minutes after the atomization is stopped, and the coughing times of the guinea pigs in 6 minutes after the atomization is started is recorded. […]

[4] = test system: BALF inflammatory cells of guinea pigs with increased cough sensitivity induced by cigarette smoke; assay: Total number and classification of BALF inflammatory cells, cigarette smoke guinea pigs (Embodiment I); settings: codeine group 30 mg/kg oral once, n = 7-10
Method: 1.1 Smoking method: prior to the experiment, after being adaptively raised quietly for one week, the guinea pigs are placed in a self-made cigarette poisoning box; ten cigarettes are fired every time and placed in a smoking trough (flume-cured tobacco type, content of tar is 12 mg, content of nicotine in smoke is 1.1 mg, and content of carbon oxide in the smoke is 15 mg); and the cigarette smoke is led into the poisoning box by three-way valve, and the timing is started after the cigarette is burnt out. The guinea pigs are smoked for 20 minutes every time and twice a day; and the smoking interval time between two adjacent smoking is greater than 6 h; and the guinea pigs are consecutively smoked for 14 days.
The guinea pigs are randomly divided into a normal group, a model group, a solvent reference group (0.5% PEG400), a codeine group, a water extract high dose group (dose: 500 mg/kg guinea pig/day: drug concentration: […]), a total polysaccharides high dose group (dose: 500 mg/kg guinea pig/day; drug concentration: 50 mg/mL), a total polysaccharides middle dose group (dose: 250 mg/kg guinea pig/day; drug concentration: 25 mg/mL) and a total polysaccharides low dose group (dose: 125 mg/kg guinea pig/day, drug concentration: 12.5 mg/mL).
Except for the normal group, animals in other groups are respectively stimulated by adopting the smoking method described in the above 1.1. Except for the normal group and the codeine group, the guinea pigs in the other groups are orally given with the corresponding drugs or solvent two hours before the second smoking for 14 consecutive days from the first day of smoking. The guinea pigs of the codeine group is orally administrated (30 mg/kg guinea pig; the codeine concentration: 3 mg/mL) one hour before the citric acid cough sensitivity check. The guinea pigs of the normal group are normally raised without any treatment. The guinea pigs are placed in a plethysmogrophy box at the 15th day; two minutes later, 0.4 mol/L citric acid aqueous solution is atomized to perform the cough stimulation, and the atomizing is ended in 10 minutes; the guinea pigs are continuously observed for 10 minutes; and the coughing times and coughing latent period of the guinea pigs in 20 minutes after the atomizing is started are recorded.
Intraperitoneal injection with 3% pentobarbital sodium solution (1 mL/kg) is performed to anesthetize the animal in 24 hours after the cough stimulation test, and 10 mL of blood is taken from the heart of the animal. The bronchoalveolar lavage fluid (BALF) is obtained by taking 6 mL of 0.1 mol/L pre-cooled PBS buffer solution, performing the bronchoalveolar lavage for three times, and uniformly lavaging the left lung repeatedly for three times. […]

Q: For `COc1ccc2c3c1O[C@H]1[C@@H](O)C=C[C@H]4[C@@H](C2)N(C)CC[C@@]341` [Codeine], which Coughing times ([1]; 0.4 mol/L citric acid, day 15, 20 min count) is on record?
A: 37.29 ± 11.64

Q: What about the “Coughing latent period” value ([1]; day 15) of the same compound?
A: 186.14 ± 45.27 s

Q: What about the Coughing times ([2]; 0.8 mol/L citric acid, 6 min count) of the same compound?
A: 3.83 ± 1.94

Q: And the “Coughing latent period” value [2]?
A: 115.3 ± 20.18 s

Q: And the “coughing times compared with the normal group” value [3]?
A: no significant difference

Q: What about the Eos % ([4]; BALF eosinophils, mean) of the same compound?
A: 4.25%

Q: What about the Lym % ([4]; BALF lymphocytes, mean) of the same compound?
A: 3.64%

Q: And the Mac % ([4]; BALF macrophages, mean)?
A: 43.86%

Q: What about the Neu % ([4]; BALF neutrophils, mean) of the same compound?
A: 48.10%

Q: What about the “total number of cells * 10^6/mL” value ([4]; BALF, x ± s) of the same compound?
A: 2.13 ± 0.38 10^6/mL
